The values that follow come from ChEMBL document CHEMBL3832079, “DailyMed|setid=c8806b45-493a-4373-bce7-736e97f9f876 | DIVALPROEX SODIUM - divalproex sodium tablet, delayed release|REMEDYREPACK INC”.

“And” between values parts separate entries of the source, which are not always exact repeats. Identical values can stand only once.

Data set [1] concerns Homo sapiens. Kind of data set: Evaluation of pharmacokinetic parameters for Valproic acid following single oral administration of Divalproex Sodium tablets or capsules. It counts as ADME, organism-based. As to conditions: in vivo, dosed compound id 430, dosed compound name DIVALPROEX SODIUM, regimen Single dose, tissue Plasma.
In data set [2] the test system is Homo sapiens. The data set can be described thus: Evaluation of pharmacokinetic parameters for Valproic acid following oral administration of Divalproex Sodium. It counts as ADME, organism-based. Conditions: in vivo, dosed compound id 431, dosed compound name VALPROATE SALT, tissue Plasma.

For the compound `CCCC(CCC)C(=O)O` [VALPROIC ACID], the time to peak (Tmax) is 3.3 h and 4 h with Homo sapiens [1] (dietary status Fasting); 4.8 h and 8 h with Homo sapiens [1] (dietary status Fed). For the same compound, the t1/2 is 9 to 16 h in the data set on Homo sapiens [1] (dose 250 to 1000 mg); 12 h and 18 h in the data set with Homo sapiens [2] (gender male and female); 10 to 67 h and 7 to 13 h with Homo sapiens [2]. The CL with Homo sapiens [2] (gender female) was 4.7 L/hr/1.73 m2; in the data set on Homo sapiens [2] (gender male), 4.8 L/hr/1.73 m2.
